From patent publication US20230159556A1, “NOVEL PROTEIN KINASE INHIBITORS” (TENOVA PHARMACEUTICALS INC., priority 2020, published 2023)

molecular target: T1, EGFR_L858R/T790M/C797S (Homo sapiens, UniProt P00533, C797S/L858R/T790M); experiment: In vitro biochemical kinase assay (33P-ATP filter-binding, Reaction Biology)
T1 construct: Reaction Biology Corporation (contract assay provider)
Experimental: The biochemical kinase assay was performed at Reaction Biology Corporation (www.reactionbiology.com, Malvern, Pa.) following procedures described in the reference (Anastassiadis, T, et al, Nature Biotechnology, 2011, 29, 1039). Base Reaction buffer includes 20 mM Hepes (pH 7.5), 10 mM MgCl2, 1 mM EGTA, 0.02% Brij35, 0.02 mg/ml BSA, 0.1 mM Na3VO4, 2 mM DTT and 1% DMSO. Required cofactors are added individually to each kinase reaction. Testing compounds were dissolved in 100% DMSO to specific concentration. The serial dilution was conducted by Integra Viaflo Assist in DMSO. Compounds in 100% DMSO are into the kinase reaction mixture by Acoustic technology (Echo550; nanoliter range), incubate for 20 min at room temperature, followed by ^33P-ATP and incubation for 2 hours at room temperature. Radioactivity was then detected by filter-binding method. Kinase activity data were expressed as the percent remaining kinase activity in test samples compared to vehicle (dimethyl sulfoxide) reactions. IC50 values and curve fits were obtained using Prism (GraphPad Software).

T1 sequence (P00533 25-1210 T790M/C797S/L858R): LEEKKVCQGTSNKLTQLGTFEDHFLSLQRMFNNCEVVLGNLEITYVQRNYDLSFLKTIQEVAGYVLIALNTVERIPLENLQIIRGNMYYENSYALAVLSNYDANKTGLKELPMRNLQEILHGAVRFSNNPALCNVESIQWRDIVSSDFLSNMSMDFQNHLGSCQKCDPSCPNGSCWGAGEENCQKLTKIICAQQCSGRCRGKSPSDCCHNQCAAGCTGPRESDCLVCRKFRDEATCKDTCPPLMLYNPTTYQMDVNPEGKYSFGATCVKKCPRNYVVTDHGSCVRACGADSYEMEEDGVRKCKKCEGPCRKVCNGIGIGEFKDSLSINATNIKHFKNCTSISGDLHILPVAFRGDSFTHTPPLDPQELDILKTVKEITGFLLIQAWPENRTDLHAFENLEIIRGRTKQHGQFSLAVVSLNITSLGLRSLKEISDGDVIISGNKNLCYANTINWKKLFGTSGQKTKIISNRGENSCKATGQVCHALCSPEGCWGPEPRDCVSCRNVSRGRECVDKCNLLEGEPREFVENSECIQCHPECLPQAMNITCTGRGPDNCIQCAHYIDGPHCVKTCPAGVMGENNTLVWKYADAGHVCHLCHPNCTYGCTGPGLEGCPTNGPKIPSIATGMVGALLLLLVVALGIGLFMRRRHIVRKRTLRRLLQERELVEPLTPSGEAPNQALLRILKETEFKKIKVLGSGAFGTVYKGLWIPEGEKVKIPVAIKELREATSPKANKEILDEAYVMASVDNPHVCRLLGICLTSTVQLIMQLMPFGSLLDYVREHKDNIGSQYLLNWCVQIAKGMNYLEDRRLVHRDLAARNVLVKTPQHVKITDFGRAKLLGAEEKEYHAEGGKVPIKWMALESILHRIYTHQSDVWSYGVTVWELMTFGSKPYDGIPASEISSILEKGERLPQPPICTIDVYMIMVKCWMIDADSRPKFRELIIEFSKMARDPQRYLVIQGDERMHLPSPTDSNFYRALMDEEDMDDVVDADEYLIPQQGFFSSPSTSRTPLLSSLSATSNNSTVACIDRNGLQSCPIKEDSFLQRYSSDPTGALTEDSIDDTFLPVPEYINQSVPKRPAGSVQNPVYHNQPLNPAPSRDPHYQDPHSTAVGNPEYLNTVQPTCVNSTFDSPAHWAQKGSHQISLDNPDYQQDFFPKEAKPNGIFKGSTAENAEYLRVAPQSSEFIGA

| Structure (SMILES) | IC50 |
| --- | --- |
| COc1cc(N(C)CCN(C)C)c2cc1Nc1ncc(Cl)c(n1)Nc1ccc(cc1N(C)S(C)(=O)=O)OCCCCC2 [Compound A5, N-(3^5-chloro-1^4-((2-(dimethylamino)ethyl)(methyl)amino)-1^6-methoxy-6-oxa-2,4-diaza-3(2,4)-pyrimidina-1(1,3),5(1,4)-dibenzenacycloundecaphane-5^2-yl)-N-methylmethanesulfonamide] | 27.9 nM |
| COc1cc(N(C)CCN(C)C)c2cc1Nc1ncc(Cl)c(n1)Nc1ccc(cc1N(C)S(C)(=O)=O)OCCC2 [Compound A7, N-(3^5-chloro-1^4-((2-(dimethylamino)ethyl)(methyl)amino)-1^6-methoxy-6-oxa-2,4-diaza-3(2,4)-pyrimidina-1(1,3),5(1,4)-dibenzenacyclononaphane-5^2-yl)-N-methylmethanesulfonamide] | 3760 nM |
| COc1cc(N2CCN(C)CC2)c2cc1Nc1ncc(Cl)c(n1)Nc1ccc(cc1NS(C)(=O)=O)OCCCCC2 [Compound A16, N-(3^5-chloro-1^6-methoxy-1^4-(4-methylpiperazin-1-yl)-6-oxa-2,4-diaza-3(2,4)-pyrimidina-1(1,3),5(1,4)-dibenzenacycloundecaphane-5^2-yl)methanesulfonamide] | 20.3 nM |
| COc1cc(N2CCC(N3CCN(C)CC3)CC2)c2cc1Nc1ncc(Cl)c(n1)Nc1ccc(cc1S(C)(=O)=O)OCCCCCC2 [Compound A19, 3^5-chloro-1^6-methoxy-1^4-(4-(4-methylpiperazin-1-yl)piperidin-1-yl)-5^2-(methylsulfonyl)-6-oxa-2,4-diaza-3(2,4)-pyrimidina-1(1,3),5(1,4)-dibenzenacyclododecaphane] | 180 nM |
| COc1cc(N2CCN(C)CC2)c2cc1Nc1ncc(Cl)c(n1)Nc1ccc(cc1C(=O)N(C)C)OCCCCCC2 [Compound A25, 3^5-chloro-1^6-methoxy-N,N-dimethyl-1^4-(4-methylpiperazin-1-yl)-6-oxa-2,4-diaza-3(2,4)-pyrimidina-1(1,3),5(1,4)-dibenzenacyclododecaphane-5^2-carboxamide] | 2510 nM |
| COc1cc(N2CCC(N(C)CCN(C)C)CC2)c2cc1Nc1ncc(Br)c(n1)Nc1ccc(cc1N(C)S(C)(=O)=O)OCCCCC2 [Compound A36, N-(3^5-bromo-1^4-(4-((2-(dimethylamino)ethyl)(methyl)amino)piperidin-1-yl)-1^6-methoxy-6-oxa-2,4-diaza-3(2,4)-pyrimidina-1(1,3),5(1,4)-dibenzenacycloundecaphane-5^2-yl)-N-methylmethanesulfonamide] | 2.9 nM |
| COc1cc(N2CCC(N3CCC(N(C)C)CC3)CC2)c2cc1Nc1ncc(Br)c(n1)Nc1ccc(cc1N(C)S(C)(=O)=O)OCCCCC2 [Compound A37, N-(3^5-bromo-1^4-(4-(dimethylamino)-[1,4′-bipiperidin]-1′-yl)-1^6-methoxy-6-oxa-2,4-diaza-3(2,4)-pyrimidina-1(1,3),5(1,4)-dibenzenacycloundecaphane-5^2-yl)-N-methylmethanesulfonamide] | 0.6 nM |
| COc1cc(N2CCC3(CC2)CN(C)C3)c2cc1Nc1ncc(Br)c(n1)Nc1ccc(cc1N(C)S(C)(=O)=O)OCCCCC2 [Compound A38, N-(3^5-bromo-1^6-methoxy-1^4-(2-methyl-2,7-diazaspiro[3.5]nonan-7-yl)-6-oxa-2,4-diaza-3(2,4)-pyrimidina-1(1,3),5(1,4)-dibenzenacycloundecaphane-5^2-yl)-N-methylmethanesulfonamide] | 0.3 nM |
| COc1cc(N2CCC(N3CCN(C)CC3)CC2)c2cc1Nc1ncc(Cl)c(n1)Nc1ccc(cc1N(C)S(C)(=O)=O)OCCCCC(=O)N2 [Compound A40, N-(3^5-chloro-1^6-methoxy-1^4-(4-(4-methylpiperazin-1-yl)piperidin-1-yl)-11-oxo-6-oxa-2,4,12-triaza-3(2,4)-pyrimidina-1(1,3),5(1,4)-dibenzenacyclododecaphane-5^2-yl)-N-methylmethanesulfonamide] | 4.3 nM |
| COc1cc(N2CCC(N3CCN(C)CC3)CC2)c2cc1Nc1ncc(Br)c(n1)Nc1ccc(cc1N(C)S(C)(=O)=O)CCC(=O)NCCC2 [Compound A41, N-(3^5-bromo-1^6-methoxy-1^4-(4-(4-methylpiperazin-1-yl)piperidin-1-yl)-8-oxo-2,4,9-triaza-3(2,4)-pyrimidina-1(1,3),5(1,4)-dibenzenacyclododecaphane-5^2-yl)-N-methylmethanesulfonamide] | 0.4 nM |
| COc1cc(N2CCC(N3CCN(C)CC3)CC2)c2cc1Nc1ncc(Br)c(n1)Nc1ccc(cc1N(C)S(C)(=O)=O)CCCNC(=O)CC2 [Compound A42] | 3.8 nM |

Next, values leading:

| IC50 | Structure (SMILES) |
| --- | --- |
| 643 nM | COc1cc(N2CCN(C)CC2)c2cc1Nc1ncc(Cl)c(n1)Nc1ccc(cc1N(C)S(C)(=O)=O)OCCC2 [Compound A2, N-(3^5-chloro-1^6-methoxy-1^4-(4-methylpiperazin-1-yl)-6-oxa-2,4-diaza-3(2,4)-pyrimidina-1(1,3),5(1,4)-dibenzenacyclononaphane-5^2-yl)-N-methylmethanesulfonamide] |
| 10000 nM | COc1cc(N2CCN(C)CC2)c2cc1Nc1ncc(Cl)c(n1)Nc1ccc(cc1S(C)(=O)=O)OCCCC2 [Compound A6, 3^5-chloro-1^6-methoxy-1^4-(4-methylpiperazin-1-yl)-5^2-(methylsulfonyl)-6-oxa-2,4-diaza-3(2,4)-pyrimidina-1(1,3),5(1,4)-dibenzenacyclodecaphane] |
| 17 nM | COc1cc(N2CCN(C)CC2)c2cc1Nc1ncc(F)c(n1)Nc1ccc(cc1N(C)S(C)(=O)=O)OCCCCC2 [Compound A11, N-(3^5-fluoro-1^6-methoxy-1^4-(4-methylpiperazin-1-yl)-6-oxa-2,4-diaza-3(2,4)-pyrimidina-1(1,3),5(1,4)-dibenzenacycloundecaphane-5^2-yl)-N-methylmethanesulfonamide] |
| 0.6 nM | COc1cc(N2CCN(C)CC2)c2cc1Nc1ncc(Br)c(n1)Nc1ccc(cc1N(C)S(C)(=O)=O)OCCCCC2 [Compound A12, N-(3^5-bromo-1^6-methoxy-1^4-(4-methylpiperazin-1-yl)-6-oxa-2,4-diaza-3(2,4)-pyrimidina-1(1,3),5(1,4)-dibenzenacycloundecaphane-5^2-yl)-N-methylmethanesulfonamide] |
| 82.2 nM | COc1cc(N2CCN(C)CC2)c2cc1Nc1ncc(Cl)c(n1)Nc1ccc(cc1N(C)S(=O)(=O)C(C)C)OCCCCC2 [Compound A17, N-(3^5-chloro-1^6-methoxy-1^4-(4-methylpiperazin-1-yl)-6-oxa-2,4-diaza-3(2,4)-pyrimidina-1(1,3),5(1,4)-dibenzenacycloundecaphane-5^2-yl)-N-methylpropane-2-sulfonamide] |
| 40.5 nM | CCOc1cc(N2CCN(C)CC2)c2cc1Nc1ncc(Cl)c(n1)Nc1ccc(cc1N(C)S(C)(=O)=O)OCCCCC2 [Compound A21, N-(3^5-chloro-1^6-ethoxy-1^4-(4-methylpiperazin-1-yl)-6-oxa-2,4-diaza-3(2,4)-pyrimidina-1(1,3),5(1,4)-dibenzenacycloundecaphane-5^2-yl)-N-methylmethanesulfonamide] |
| 503 nM | CC(C)Oc1cc(N2CCN(C)CC2)c2cc1Nc1ncc(Cl)c(n1)Nc1ccc(cc1N(C)S(C)(=O)=O)OCCCCC2 [Compound A22, N-(3^5-chloro-1^6-isopropoxy-1^4-(4-methylpiperazin-1-yl)-6-oxa-2,4-diaza-3(2,4)-pyrimidina-1(1,3),5(1,4)-dibenzenacycloundecaphane-5^2-yl)-N-methylmethanesulfonamide] |
